The source made the active and inactive calls.
Tests used:
Rattus norvegicus [1] = test: (§1) Antihyperalgesic activity in complete Freund's adjuvant-induced Sprague-Dawley rat rheumatoid arthritis model assessed as increase in weight tolerance on ipsilateral paw at 10 mg/kg, po administered once on day 14 post complete Freund's adjuvant challenge measured after 45 mins post dose by analgesimetry; type: functional, organism-based
Carbonic anhydrase 1 = Carbonic anhydrase 1 (Homo sapiens, UniProt P00915); test: Inhibition of recombinant human CA1 preincubated for 15 mins by stopped-flow CO2 hydration assay
Chain of Carbonic anhydrase 1 (P00915 whole entry): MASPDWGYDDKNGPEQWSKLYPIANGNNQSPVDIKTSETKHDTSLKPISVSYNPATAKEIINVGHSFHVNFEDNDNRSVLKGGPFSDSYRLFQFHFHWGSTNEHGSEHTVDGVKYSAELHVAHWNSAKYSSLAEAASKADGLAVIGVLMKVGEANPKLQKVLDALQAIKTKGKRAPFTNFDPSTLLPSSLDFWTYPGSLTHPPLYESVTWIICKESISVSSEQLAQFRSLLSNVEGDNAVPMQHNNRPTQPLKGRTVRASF

Carbonic anhydrase 2 = Carbonic anhydrase 2 (Homo sapiens, UniProt P00918); test: Inhibition of recombinant human CA2 preincubated for 15 mins by stopped-flow CO2 hydration assay
Carbonic anhydrase 7 = Carbonic anhydrase 7 (Homo sapiens, UniProt P43166); test: Inhibition of recombinant human CA7 preincubated for 15 mins by stopped-flow CO2 hydration assay
Chain of Carbonic anhydrase 7 (P43166 whole entry): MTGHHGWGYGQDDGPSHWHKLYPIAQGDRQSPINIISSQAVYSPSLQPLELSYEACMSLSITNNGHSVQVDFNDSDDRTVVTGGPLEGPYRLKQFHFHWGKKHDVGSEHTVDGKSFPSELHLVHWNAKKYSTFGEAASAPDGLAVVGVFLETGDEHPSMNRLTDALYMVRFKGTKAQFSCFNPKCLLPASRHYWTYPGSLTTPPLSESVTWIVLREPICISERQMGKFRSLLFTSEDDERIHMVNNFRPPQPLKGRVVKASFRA

Carbonic anhydrase 9 = Carbonic anhydrase 9 (Homo sapiens, UniProt Q16790)
Description: Inhibition of recombinant human CA9 catalytic domain preincubated for 15 mins by stopped-flow CO2 hydration assay

Carbonic anhydrase 12 = Carbonic anhydrase 12 (Homo sapiens, UniProt O43570); test: Inhibition of recombinant human CA12 preincubated for 15 mins by stopped-flow CO2 hydration assay
Chain of Carbonic anhydrase 12 (O43570 whole entry): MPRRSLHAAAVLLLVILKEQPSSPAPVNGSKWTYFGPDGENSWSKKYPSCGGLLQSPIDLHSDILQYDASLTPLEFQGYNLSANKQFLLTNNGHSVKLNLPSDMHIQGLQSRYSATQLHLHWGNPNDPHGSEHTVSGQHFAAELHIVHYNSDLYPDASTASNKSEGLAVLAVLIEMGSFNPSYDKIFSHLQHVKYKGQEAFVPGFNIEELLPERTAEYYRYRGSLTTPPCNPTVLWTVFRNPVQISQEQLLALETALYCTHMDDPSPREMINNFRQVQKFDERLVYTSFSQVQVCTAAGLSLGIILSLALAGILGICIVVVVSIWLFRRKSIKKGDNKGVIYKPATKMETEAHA

Rattus norvegicus [2] = test: Effect on normal pain sensitivity in complete Freund's adjuvant-induced Sprague-Dawley rat rheumatoid arthritis model assessed as change in contralateral paw withdrawal threshold at 10 mg/kg, po administered once on day 14 post complete Freund's adjuvant challenge measured after 15 to 75 mins by analgesimetry; type: ADME, organism-based; conditions: in vivo
Rattus norvegicus [3] = test: (§2) Antihyperalgesic activity in complete Freund's adjuvant-induced Sprague-Dawley rat rheumatoid arthritis model assessed as improvement in postural imbalance by measuring difference between weight burdened on contralateral and ipsilateral paw at 10 mg/kg, po administered once on day 14 post complete Freund's adjuvant challenge measured after 15 to 30 mins by incapacitance test; type: functional, organism-based
Carbonic anhydrase 4 = Carbonic anhydrase 4 (Homo sapiens, UniProt P22748)
Chain of Carbonic anhydrase 4 (P22748 whole entry): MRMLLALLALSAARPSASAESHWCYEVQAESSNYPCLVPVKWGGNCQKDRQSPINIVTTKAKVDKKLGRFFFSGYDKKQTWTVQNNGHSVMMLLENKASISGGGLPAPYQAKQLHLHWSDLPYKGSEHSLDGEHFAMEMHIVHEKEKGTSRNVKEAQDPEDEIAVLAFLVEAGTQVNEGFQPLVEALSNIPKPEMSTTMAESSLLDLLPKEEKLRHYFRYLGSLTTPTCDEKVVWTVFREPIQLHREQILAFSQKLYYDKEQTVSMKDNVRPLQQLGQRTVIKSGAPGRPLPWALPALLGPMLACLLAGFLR
Description: Inhibition of recombinant human CA4 preincubated for 15 mins by stopped-flow CO2 hydration assay

Rattus norvegicus [4] = test: as §1, with “as” for “as increase in”, “at 30” for “after 45”, “analgesimetry (reference value: 47.6 +/- 1.2 g)” for “analgesimetry”; type: functional
Rattus norvegicus [5] = test: as §1, with “as” for “as increase in”, “at” for “after”, “analgesimetry (reference value: 47.6 +/- 1.2 g)” for “analgesimetry”; type: functional
Rattus norvegicus [6] = test: as §1, with “at 75” for “after 45”; type: functional, organism-based
Rattus norvegicus [7] = test: Antihyperalgesic activity in complete Freund's adjuvant-induced Sprague-Dawley rat rheumatoid arthritis model assessed as improvement in postural imbalance by measuring difference between weight burdened on contralateral and ipsilateral paw at 10 mg/kg, po administered once on day 14 post complete Freund's adjuvant challenge measured at 30 mins post dose by incapacitance test (reference value: 45.6 +/- …; type: functional
Rattus norvegicus [8] = test: Antihyperalgesic activity in complete Freund's adjuvant-induced Sprague-Dawley rat rheumatoid arthritis model assessed as improvement in postural imbalance by measuring difference between weight burdened on contralateral and ipsilateral paw at 10 mg/kg, po administered once on day 14 post complete Freund's adjuvant challenge measured at 45 mins post dose by incapacitance test (reference value: 45.6 +/- …; type: functional
Rattus norvegicus [9] = test: as §2, with “at 60” for “after 15 to 30”, “mins post dose” for “mins”; type: functional, organism-based
Rattus norvegicus [10] = test: as §1, with “15 to 75” for “45”; type: functional, organism-based
Rattus norvegicus [11] = test: as §1, with “100” for “10”, “15 to 30” for “45”; type: functional, organism-based
Rattus norvegicus [12] = test: as §2, with “100” for “10”; type: functional, organism-based
Rattus norvegicus [13] = test: as §1, with “after 30 to” for “after”; type: functional, organism-based

Ki (Carbonic anhydrase 1) | Ki (Carbonic anhydrase 2) | Ki (Carbonic anhydrase 7) | Ki (Carbonic anhydrase 9) | Ki (Carbonic anhydrase 12) | SMILES | Activity (Rattus norvegicus [2]) | also measured
> 0.1 µM | > 0.1 µM | > 0.1 µM | > 0.1 µM | > 0.1 µM | CC(C(=O)NCCOc1ccc2ccc(=O)oc2c1)c1ccc(-c2ccccc2)c(F)c1 (racemic) | Non-Toxic | Activity (Rattus norvegicus [1]): Active; Activity (Rattus norvegicus [3]): Active
> 0.1 µM | > 0.1 µM | > 0.1 µM | 0.0313 µM |  | COc1ccc2c(c1)c(CC(=O)NCCOc1ccc3oc(=O)ccc3c1)c(C)n2C(=O)c1ccc(Cl)cc1 | Non-Toxic | Activity (Rattus norvegicus [1]): Active; Activity (Rattus norvegicus [3]): Active
> 0.1 µM | > 0.1 µM | > 0.1 µM | > 0.1 µM | > 0.1 µM | COc1ccc2cc([C@H](C)C(=O)NCCOc3ccc4oc(=O)ccc4c3)ccc2c1 |  | 
> 0.1 µM | > 0.1 µM | > 0.1 µM |  |  | O=C(Cc1ccccc1Nc1c(Cl)cccc1Cl)NCCOc1ccc2oc(=O)ccc2c1 |  | Ki (Carbonic anhydrase 4): 0.0056 µM
> 0.1 µM | > 0.1 µM | > 0.1 µM | > 0.1 µM | 0.039 µM | CC(C)Cc1ccc(C(C)C(=O)NCCOc2ccc3ccc(=O)oc3c2)cc1 (racemic) | Non-Toxic | Activity (Rattus norvegicus [4]): 63.8 g; Activity (Rattus norvegicus [5]): 61.3 g; Activity (Rattus norvegicus [6]): Active; Activity (Rattus norvegicus [7]): 7.9 g; Activity (Rattus norvegicus [8]): 11.1 g; Activity (Rattus norvegicus [9]): Active; Ki (Carbonic anhydrase 4): 0.0091 µM
> 0.1 µM | > 0.1 µM | > 0.1 µM |  |  | O=C(Cc1ccccc1Nc1c(Cl)cccc1Cl)NCCOc1ccc2ccc(=O)oc2c1 | Non-Toxic | Activity (Rattus norvegicus [10]): inactive; Ki (Carbonic anhydrase 4): 0.0091 µM
> 0.1 µM | > 0.1 µM | > 0.1 µM | > 0.1 µM | > 0.1 µM | CC(C)Cc1ccc(C(C)C(=O)NCCOc2ccc3oc(=O)ccc3c2)cc1 (stereo not given) |  | Ki (Carbonic anhydrase 4): 0.00044 µM
> 0.1 µM | 0.0854 µM | > 0.1 µM | > 0.1 µM |  | CC(C(=O)NCCOc1ccc2ccc(=O)oc2c1)c1cccc(C(=O)c2ccccc2)c1 (racemic) | Non-Toxic | Activity (Rattus norvegicus [10]): inactive
 |  |  |  |  | CC(C)Cc1ccc(C(C)C(=O)O)cc1 (stereo not given) |  | Activity (Rattus norvegicus [11]): Active; Activity (Rattus norvegicus [12]): Active
> 0.1 µM | > 0.1 µM | > 0.1 µM | 0.0318 µM | > 0.1 µM | O=C(c1ccccc1)c1ccc2n1CCC2C(=O)NCCOc1ccc2oc(=O)ccc2c1 (racemic) |  | 
> 0.1 µM | > 0.1 µM | > 0.1 µM | 0.0201 µM |  | COc1ccc2c(c1)c(CC(=O)NCCOc1ccc3ccc(=O)oc3c1)c(C)n2C(=O)c1ccc(Cl)cc1 | Non-Toxic | Activity (Rattus norvegicus [10]): inactive
> 0.1 µM | > 0.1 µM | > 0.1 µM |  |  | CC(C(=O)NCCOc1ccc2oc(=O)ccc2c1)c1ccc(-c2ccccc2)c(F)c1 (racemic) | Non-Toxic | Activity (Rattus norvegicus [10]): inactive
> 0.1 µM | > 0.1 µM | > 0.1 µM | > 0.1 µM |  | COc1ccc2cc([C@H](C)C(=O)NCCOc3ccc4ccc(=O)oc4c3)ccc2c1 |  | 
> 0.1 µM | > 0.1 µM | > 0.1 µM | 0.0547 µM | > 0.1 µM | CC(C(=O)NCCOc1ccc2oc(=O)ccc2c1)c1cccc(C(=O)c2ccccc2)c1 (racemic) |  | 
> 0.1 µM | > 0.1 µM | > 0.1 µM | 0.0308 µM |  | CC1=C(CC(=O)NCCOc2ccc3oc(=O)ccc3c2)c2cc(F)ccc2/C1=C\c1ccc([S+](C)[O-])cc1 (stereo not given) |  | 
> 0.1 µM | > 0.1 µM | > 0.1 µM | > 0.1 µM | > 0.1 µM | O=C(c1ccccc1)c1ccc2n1CCC2C(=O)NCCOc1ccc2ccc(=O)oc2c1 (racemic) | Non-Toxic | Activity (Rattus norvegicus [1]): Active
> 0.1 µM | > 0.1 µM | > 0.1 µM | 0.0279 µM |  | CC1=C(CC(=O)NCCOc2ccc3ccc(=O)oc3c2)c2cc(F)ccc2/C1=C\c1ccc([S+](C)[O-])cc1 (stereo not given) | Non-Toxic | Activity (Rattus norvegicus [13]): Active; Activity (Rattus norvegicus [3]): Active

Source: ChEMBL document CHEMBL3992527, “Design and Synthesis of Novel Nonsteroidal Anti-Inflammatory Drugs and Carbonic Anhydrase Inhibitors Hybrids (NSAIDs-CAIs) for the Treatment of Rheumatoid Arthritis” (J Med Chem, 2017)
